Data on 20 molecules can be found in patent US7501410B2, “Methods of inhibiting BTK and SYK protein kinases” (Roche Palo Alto LLC, priority 2006, dated 2009).

A value given as a limit tells only on which side of the number the result lay.

Assay [1] addresses T1, Bruton's Tyrosine Kinase (Btk) (Homo sapiens, UniProt Q06187).
T1 construct: 5-10 nM Btk enzyme (His-tagged, full-length); His tag
In words: Determination of IC50 of Bruton's Tyrosine Kinase (Btk) inhibition, 33P filtration assay. Particulars: His-tagged full-length Btk, 100 μM ATP. The format is biochemical. The text has this:
Determination of IC50 of Bruton's Tyrosine Kinase (Btk) Inhibition
The assay is a capture of radioactive ^33P phosphorylated product through filtration. The interactions of Btk, biotinylated SH2 peptide substrate (Src homology), and ATP lead to phosphorylation of the peptide substrate. Biotinylated product is bound streptavidin sepharose beads. All bound, radiolabeled products are detected by scintillation counter.
Plates assayed are 96-well polypropylene (Greiner) and 96-well 1.2 μm hydrophilic PVDF filter plates (Millipore). Concentrations reported here are final assay concentrations: 10-100 μM compounds in DMSO (Burdick and Jackson), 5-10 nM Btk enzyme (His-tagged, full-length), 30 μM peptide substrate (Biotin-Aca-[…]-NH2), 100 μM ATP (Sigma), 8 mM imidazole (Sigma, pH 7.2), 8 mM glycerol-2-phosphate (Sigma), 200 μM EGTA (Roche Diagnostics), 1 mM MnCl2 (Sigma), 20 mM MgCl2 (Sigma), 0.1 mg/ml BSA (Sigma), 2 mM DTT (Sigma), 1 μCi ^33P ATP (Amersham), 20% streptavidin sepharose beads (Amersham), 50 mM EDTA (Gibco), 2 M NaCl (Gibco), 2 M NaCl w/1% phosphoric acid (Gibco), microscint-20 (Perkin Elmer).
IC50 determinations are calculated from 10 data points per compound utilizing data produced from a standard 96-well plate assay template. One control compound and seven unknown inhibitors were tested on each plate and each plate was run twice. Typically, compounds were diluted in half-log starting at 100 μM and ending at 3 nM. The control compound was staurosporine. Background was counted in the absence of peptide substrate. Total activity was determined in the presence of peptide substrate. The following protocol was used to determine BTK inhibition.
1) Sample preparation: The test compounds were diluted at half-log increments in assay buffer (imidazole, glycerol-2-phosphate, EGTA, MnCl2, MgCl2, BSA).
2) Bead preparation • a.) rinse beads by centrifuging at 500 g • b.) reconstitute the beads with PBS and EDTA to produce a 20% bead slurry
3) Pre-incubate reaction mix without substrate (assay buffer, DTT, ATP, ^33P ATP) and mix with substrate (assay buffer, DTT, ATP, ^33P ATP, peptide substrate) 30° C. for 15 min.
4) To start assay, pre-incubate 10 μL BTK in enzyme buffer (imidazole, glycerol-2-phosphate, BSA) and 10 μL of test compounds for 10 min at RT.
5) Add 30 μL reaction mixture without or with substrate to BTK and compounds.
6) Incubate 50 μL total assay mix for 30 min at 30° C.
7) Transfer 40 μL of assay to 150 μL bead slurry in filter plate to stop reaction.
8) Wash filter plate after 30 min, with following steps • a. 3 ×250 μL NaCl • b. 3×250 μL NaCl containing 1% phosphoric acid • c. 1×250 μL H2O
9) Dry plate for 1 h at 65° C. or overnight at RT
10) Add 50 μL microscint-20 and count ^33P cpm on scintillation counter.
Calculate percent activity from raw data in cpm percent activity=(sample−bkg)/(total activity−bkg)×100

Assay [2] has as its target T2, Spleen Tyrosine Kinase (SYK) aa 360-635 (Homo sapiens, UniProt P43405).
T2 construct: truncated construct of Spleen Tyrosine Kinase aa 360-635; made in house
In words: Determination of IC50 of Spleen Tyrosine Kinase (SYK) inhibition, 33P kinase assay. Particulars: recombinant human SYK360-635, 20 μM ATP; read-out: IC50 (μM) SYK Assay. Type of assay: biochemical. The method, then: Determination of IC50 of Spleen Tyrosine Kinase (SYK) Inhibition
The SYK kinase assay is a standard kinase assay adapted to a 96 well plate format. This assay is performed in 96-well format for IC50 determination with 8 samples which represented 10 half log dilutions and a 40 μL reaction volume. The assay measures the incorporation of radiolabeled ^33P γATP into an N-terminally biotinylated peptide substrate, derived from naturally occurring phosphoacceptor consensus sequence (Biotin-11aa DY*E). Phosphorylated products were detected upon termination of reactions with EDTA and the addition of Streptavidin coated beads. • Assay plates: 96-well MultiScreen 0.65 um filter plates (Millipore Cat. No.: MADVNOB10) • Streptavidin coated beads: Streptavidin Sepharose TM, suspension 5.0 mL, in 50 mM EDTA/PBS diluted (1:100), (Amersham, Cat. No.: 17-5113-01) • Compounds: 10 mM in 100% dimethylsulfoxide (DMSO), final conc.: compound 0.003-100 uM in 10% DMSO • Enzyme: SYK RPA purified, truncated construct of Spleen Tyrosine Kinase aa 360-635, stock solution 1 mg/mL, MW: 31.2 KDa, final conc.:0.0005 μM. • Peptide 1: biotinylated peptide is derived from a naturally occurring phosphor-acceptor consensus sequence (Biotin-[…]), special order from QCB, stock solution 20 mM, final conc.: 5.0 μM. • ATP: Adenosine-5′-triphosphate 20 mM, (ROCHE Cat. No.:93202720), final concentration: 20 μM • Buffer: HEPES: 2-Hydroxyethyl piperazine-2-ethanesulfonic acid (Sigma, Cat. No.: H-3375) final concentration: 50 mM HEPES pH7.5 • BSA: Bovine Serum Albumin Fraction V, fatty acid free (Roche Diagnostics GmbH, Cat. No. 9100221) diluted to a final concentration of 0.1% • EDTA: EDTA stock solution 500 mM, (GIBCO, Cat. No.: 15575-038) final concentration: 0.1 mM • DTT: 1,4-Dithiothreitol (Roche Diagnostics GmbH, Cat. No.: 197777), final conc.: 1 mM • MgCl2×6H2O: MERCK, Cat. No.: 105833.1000, final concentration: 10 mM • Assay Dilution Buffer (ADB): 50 mM HEPES, 0.1 mM EGTA, 0.1 mM Na Vanadate, 0.1 mM β-glycerophosphate, 10 mM MgCl2, 1 mM DTT, 0,1% BSA, pH 7.5 • Bead wash buffer: 10 g/L PBS (Phosphate buffered saline) with 2M NaCl+1% phosphoric acid Experimental Method:
In 40 μL volume, 26 μL of ADB diluted, purified recombinant human SYK360-635 [0.5 nM] was mixed with 4 μL of 10× concentrations of the test compounds, [usually 100 μM-0.003 μM] in [10%] DMSO and the mixture was incubated for 10 min at RT.
The kinase reaction was initiated by the addition of 10 μL 4× substrate cocktail containing the DYE peptide substrate [0 or 5 μM], ATP [20 μM] and […] [2 μCi/rxn]. After incubation at 30° C. for 15 min, the reaction was terminated by the transfer of 25 μL of the reaction sample to a 96 well 0.65 um Millipore MADVNOB membrane/plate containing 200 μL 5 mM EDTA and 20% Streptavidine coated beads in PBS.
The unbound radionucleotides were washed under vacuum with 3×250 μL 2M NaCl; 2×250 μL 2M NaCl+1% phosphoric acid; 1×250 μL H2O. After the last wash membrane/plates were transferred to an adaptor plate, heat dried for 15 min at 60° C., and 50 μL scintillation cocktail was added to each well and 4 h later the amount of radioactivity was counted in a top counter.
The IC50 was calculated using a non-linear curve fit with XLfit software (ID Business Solution Ltd., Guilford, Surrey, UK). […] Representative results are in Table 1.

T1 sequence (Q06187 whole entry): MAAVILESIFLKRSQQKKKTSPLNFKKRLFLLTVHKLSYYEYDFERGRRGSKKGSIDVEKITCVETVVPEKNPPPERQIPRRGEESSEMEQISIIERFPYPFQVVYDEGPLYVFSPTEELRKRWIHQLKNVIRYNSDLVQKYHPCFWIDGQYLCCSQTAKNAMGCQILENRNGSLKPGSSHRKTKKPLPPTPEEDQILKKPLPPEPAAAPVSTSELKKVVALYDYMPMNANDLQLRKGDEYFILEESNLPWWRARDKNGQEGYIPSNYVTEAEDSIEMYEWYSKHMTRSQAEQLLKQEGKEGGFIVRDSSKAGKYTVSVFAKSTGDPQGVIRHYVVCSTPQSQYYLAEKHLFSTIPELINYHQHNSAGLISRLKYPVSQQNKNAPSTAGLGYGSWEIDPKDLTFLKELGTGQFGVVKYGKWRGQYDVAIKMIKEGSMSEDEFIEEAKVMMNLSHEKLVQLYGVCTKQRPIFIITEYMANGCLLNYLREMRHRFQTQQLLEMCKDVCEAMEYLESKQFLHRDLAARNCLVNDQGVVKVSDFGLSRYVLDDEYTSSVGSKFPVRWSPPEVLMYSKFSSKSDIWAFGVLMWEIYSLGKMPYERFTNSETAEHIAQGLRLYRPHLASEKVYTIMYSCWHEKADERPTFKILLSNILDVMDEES

As for `Cc1cc(Nc2nn(-c3ccc(F)cc3)c(=O)c3ccccc23)n[nH]1` [Example A-7, 2-(4-fluoro-phenyl)-4-(5-methyl-1H-pyrazol-3-ylamino)-2H-phthalazin-1-one], the midpoint of inhibition in assay [1], the IC50, lay at 6.3 µM.
On to `Cc1cc(Nc2nn(C(C)C)c(=O)c3cc(CO)ccc23)[nH]n1` [Example M-9, 7-Hydroxymethyl-2-isopropyl-4-(5-methyl-1H-pyrazol-3-ylamino)-2H-phthalazin-1-one], for which the concentration for half-maximal inhibition (IC50) (in general, the concentration that inhibits the measured activity by half) is 0.782 µM in assay [1] and 0.666 µM in assay [2].
In the same order, the values of `CSc1ccc2c(Nc3cc(C)[nH]n3)nn(C(C)C)c(=O)c2c1` [Example H-1, 2-Isopropyl-4-(5-methyl-1H-pyrazol-3-ylamino)-7-methylsulfanyl-2H-phthalazin-1-one] are 4.32 µM and 1.57 µM.
As to `COCc1ccc2c(Nc3cc(C)[nH]n3)nn(C(C)C)c(=O)c2c1` [Example K-1, 2-Isopropyl-7-methoxymethyl-4-(5-methyl-1H-pyrazol-3-ylamino)-2H-phthalazin-1-one], the IC50 in assay [2] was determined as 1.25 µM.
On to `Cc1cc(Nc2nn(-c3ccc(C(F)(F)F)cc3)c(=O)c3ccccc23)[nH]n1` [Example A-25, 4-(5-methyl-1H-pyrazol-3-ylamino)-2-(4-trifluoromethyl-phenyl)-2H-phthalazin-1-one], for which the concentration for half-maximal inhibition (IC50) in assay [2] was 0.525 µM.
Turning to `Cc1cc(Nc2nn(C(C)C)c(=O)c3cc(O)ccc23)n[nH]1` [Example G-6, 7-Hydroxy-2-isopropyl-4-(5-methyl-1H-pyrazol-3-yl-amino)-2H-phthalazin-1-one], the IC50 in assay [1] worked out at 1.28 µM; in assay [2] it was 2.52 µM.
As to `COc1ccc(-n2nc(Nc3cc(C)[nH]n3)c3ccccc3c2=O)cc1` [Example A-9, 2-(4-methoxy-phenyl)-4-(5-methyl-1H-pyrazol-3-ylamino)-2H-phthalazin-1-one], in assay [1], the half-inhibitory concentration (IC50) worked out at 5.87 µM.
Regarding `Cc1cc(Nc2nn(CC(F)(F)F)c(=O)c3ccccc23)n[nH]1` [Example A-5, 4-(5-methyl-1H-pyrazol-3-ylamino)-2-(2,2,2-trifluoro-ethyl)-2H-phthalazin-1-one], the IC50 in assay [1] is 8.22 µM; in assay [2] it was 7.68 µM.
In the same order, the values of `Cc1cc(Nc2nn(CC(=O)c3ccccc3)c(=O)c3ccccc23)n[nH]1` [Example E-9, 4-(5-methyl-1H-pyrazol-3-ylamino)-2-(2-oxo-2-phenyl-ethyl)-2H-phthalazin-1-one] are 10.4 µM and 7.67 µM.
`Cc1cc(Nc2nn(C)c(=O)c3ccccc23)n[nH]1` [Example A-3, 2-methyl-4-(5-methyl-1H-pyrazol-3-yl-amino)-2H-phthalazin-1-one]: the concentration for half-maximal inhibition (IC50) in assay [1] came out at 70.5 µM.
As to `Cc1cc(Nc2nn(C(C)C)c(=O)c3cc(OCCCS(=O)(=O)N(C)C)ccc23)n[nH]1` [Example ZD-3, 3-[3-Isopropyl-1-(5-methyl-1H-pyrazol-3-ylamino)-4-oxo-3,4-dihydro-phthalazin-6-yloxy]-propane-1-sulfonic acid dimethylamide], the half-inhibitory concentration (IC50) in assay [1] was 0.86 µM; in assay [2], 3.02 µM.
Consider `Cc1ccc(-n2nc(Nc3cc(C)[nH]n3)c3ccccc3c2=O)cc1` [Example A-6, 4-(5-methyl-1H-pyrazol-3-ylamino)-2-p-tolyl-2H-phthalazin-1-one], for which, in assay [1], the concentration for half-maximal inhibition (IC50) stood at 38.2 µM.
The same measure, in the same setting: the figure for `Cc1ccc(-n2nc(Nc3cc[nH]n3)c3ccccc3c2=O)cc1` [Example A-10, 4-(1H-pyrazol-3-yl-amino)-2-p-tolyl-2H-phthalazin-1-one] is 16.6 µM.
With `Cc1cc(Nc2nn(Cc3ccccn3)c(=O)c3ccccc23)[nH]n1` [Example A-22, 4-(5-methyl-2H-pyrazol-3-ylamino)-2-pyridin-2-ylmethyl-2H-phthalazin-1-one], in assay [2], the 50% inhibitory concentration (IC50) amounted to 78.1 µM.
Molecule `Cc1cc(Nc2nn(Cc3ccccc3)c(=O)c3ccccc23)n[nH]1` [Example E-1, 2-Benzyl-4-(5-methyl-1H-pyrazol-3-ylamino)-2H-phthalazin-1-one] registered an IC50 in assay [1] of over 100 µM.
In the case of `Cc1cc(Nc2nn(C(C)C)c(=O)c3ccc(CO)cc23)n[nH]1` [Example M-10, 6-Hydroxymethyl-2-isopropyl-4-(5-methyl-1H-pyrazol-3-yl-amino)-2H-phthalazin-1-one], in assay [2], the half-maximal inhibitory concentration (IC50) is 56.9 µM.
For “4-(5-Methyl-2H-pyrazole-3-ylamino)-phenyl-2H-phthalazin-1-one [Example A-1]”, the IC50 in assay [1] was 1.25 µM.
For `Cc1cc(Nc2nn(C(C)C)c(=O)c3ccccc23)n[nH]1` [Example A-23, 2-isopropyl-4-(5-methyl-1H-pyrazol-3-ylamino)-2H-phthalazin-1-one], the midpoint of inhibition in assay [1], the IC50, lay at 50.9 µM.
Consider `Cc1cc(Nc2nn(Cc3cccnc3)c(=O)c3ccccc23)[nH]n1` [Example A-18, 4-(5-methyl-2H-pyrazol-3-ylamino)-2-pyridin-3-ylmethyl-2H-phthalazin-1-one], for which, in assay [2], the 50% inhibitory concentration (IC50) turned out to be 6.53 µM.
As for `Cc1cc(Nc2nn(CC(C)C)c(=O)c3ccccc23)n[nH]1` [Example A-4, 2-isobutyl-4-(5-methyl-1H-pyrazol-3-ylamino)-2H-phthalazin-1-one], the IC50 in assay [1] came out at 11.4 µM.
